Test results as given in patent publication US9156796B2, “Benzoimidazole-carboxylic acid amide derivatives as APJ receptor modulators” (SANOFI, priority 2013, dated 2015).

Molecular target: T1, human apelin receptor (Homo sapiens, UniProt P35414)
T1 construct: expressed in transfected cells
T1 sequence (P35414 1-380): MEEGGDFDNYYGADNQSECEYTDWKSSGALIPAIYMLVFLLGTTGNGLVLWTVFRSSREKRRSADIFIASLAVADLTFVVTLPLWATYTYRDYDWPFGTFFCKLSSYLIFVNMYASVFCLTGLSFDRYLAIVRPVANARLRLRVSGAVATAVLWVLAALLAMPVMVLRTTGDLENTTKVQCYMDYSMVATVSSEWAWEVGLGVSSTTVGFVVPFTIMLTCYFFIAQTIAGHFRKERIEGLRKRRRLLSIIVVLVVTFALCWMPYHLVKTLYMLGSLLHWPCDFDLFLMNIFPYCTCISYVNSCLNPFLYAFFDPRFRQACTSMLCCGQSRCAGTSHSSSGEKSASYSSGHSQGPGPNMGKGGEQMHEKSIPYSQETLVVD
Test: Determination of agonism on the human apelin receptor by a calcium fluorescence assay (FLIPR)
Format: cell-based
Conditions: HEK293 cells stably transfected with human apelin receptor and Giaq protein, Fluo-4 calcium fluorescence, read-out: EC50 (APJ agonism)
Summary of the method: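 HEK293 cells stably co-expressing human apelin receptor and promiscuous Giaq, loaded 1 h at 37 °C with Fluo-4 (4 μM) in probenecid-containing Hepes buffer, pH 7.4. Compounds, at least 7 concentrations in triplicate, added in FLIPR Tetra; peak calcium fluorescence normalized to 1 μM apelin-13 as 100% to derive EC50.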

EC50 [nM]	SMILES
3800	CCC(C)Cn1c(CC2CCCCC2)nc2cc(C(=O)N[C@@H](CC(C)C)C(=O)O)ccc21 (stereo partly drawn) [Example 135, (S)-2-{[2-Cyclohexylmethyl-1-(2-methyl-butyl)-1H-benzoimidazole-5-carbonyl]-amino}-4-methyl-pentanoic acid]
2700	CC(C)C[C@H](NC(=O)c1ccc2c(c1)nc(Cc1ccsc1)n2-c1ccccc1)C(=O)O [Example 136, (S)-4-Methyl-2-[(1-phenyl-2-thiophen-3-ylmethyl-1H-benzoimidazole-5-carbonyl)-amino]-pentanoic acid]
9500	CCC(C)Cn1c(Cc2ccsc2)nc2cc(C(=O)N[C@@H](CC(C)C)C(=O)O)ccc21 (stereo partly drawn) [Example 137, (S)-4-Methyl-2-{[1-(2-methyl-butyl)-2-thiophen-3-ylmethyl-1H-benzoimidazole-5-carbonyl]-amino}-pentanoic acid]
2930	CC(C)C[C@H](NC(=O)c1ccc2c(c1)nc(Cc1ccoc1)n2C1CCCCC1)C(=O)O [Example 138, (S)-2-[(1-Cyclohexyl-2-furan-3-ylmethyl-1H-benzoimidazole-5-carbonyl)-amino]-4-methyl-pentanoic acid]
285	CC(C)C[C@H](NC(=O)c1ccc2c(c1)nc(Cc1ccsc1)n2C1CCCCC1C)C(=O)O (stereo partly drawn) [Example 139, (S)-4-Methyl-2-{[1-(2-methyl-cyclohexyl)-2-thiophen-3-ylmethyl-1H-benzoimidazole-5-carbonyl]-amino}-pentanoic acid]
3800	CCC(C)n1c(Cc2cccs2)nc2cc(C(=O)N[C@@H](CC3CCCCC3)C(=O)O)ccc21 (stereo partly drawn) [Example 140, (S)-2-[(1-sec-Butyl-2-thiophen-2-ylmethyl-1H-benzoimidazole-5-carbonyl)-amino]-3-cyclohexyl-propionic acid]
23000	CCC(CC)n1c(CC2CCCCC2)nc2cc(C(=O)N[C@@H](CC3CCCCC3)C(=O)O)ccc21 [Example 141, (S)-3-Cyclohexyl-2-{[2-cyclohexylmethyl-1-(1-ethyl-propyl)-1H-benzoimidazole-5-carbonyl]-amino}-propionic acid]
12000	CCC(C)n1c(Cc2ccsc2)nc2cc(C(=O)N[C@@H](CC(C)C)C(=O)O)ccc21 (stereo partly drawn) [Example 142, (S)-2-[(1-sec-Butyl-2-thiophen-3-ylmethyl-1H-benzoimidazole-5-carbonyl)-amino]-4-methyl-pentanoic acid]
2450	CC(C)C[C@H](NC(=O)c1ccc2c(c1)nc(Cc1ccccc1)n2C1CCCCC1C)C(=O)O (stereo partly drawn) [Example 143, (S)-2-{[2-Benzyl-1-(2-methyl-cyclohexyl)-1H-benzoimidazole-5-carbonyl]-amino}-4-methyl-pentanoic acid]
23000	Cc1ccc(Cc2nc3cc(C(=O)N[C@@H](CC(C)C)C(=O)O)ccc3n2C2CCCCC2C)s1 (stereo partly drawn) [Example 144, (S)-4-Methyl-2-{[1-(2-methyl-cyclohexyl)-2-(5-methyl-thiophen-2-ylmethyl)-1H-benzoimidazole-5-carbonyl]-amino}-pentanoic acid]
18000	CCC(C)Cn1c(Cc2cccs2)nc2cc(C(=O)N[C@@H](CC3CCCCC3)C(=O)O)ccc21 (stereo partly drawn) [Example 145, (S)-3-Cyclohexyl-2-{[1-(2-methyl-butyl)-2-thiophen-2-ylmethyl-1H-benzoimidazole-5-carbonyl]-amino}-propionic acid]
328	CC(C)C[C@H](NC(=O)c1ccc2c(c1)nc(Cc1cccs1)n2C1CCCCC1C)C(=O)O (stereo partly drawn) [Example 146, (S)-4-Methyl-2-{[1-(2-methyl-cyclohexyl)-2-thiophen-2-ylmethyl-1H-benzoimidazole-5-carbonyl]-amino}-pentanoic acid]
4550	CCC(C)n1c(Cc2cccs2)nc2cc(C(=O)N[C@@H](CC(C)C)C(=O)O)ccc21 (stereo partly drawn) [Example 147, (S)-2-[(1-sec-Butyl-2-thiophen-2-ylmethyl-1H-benzoimidazole-5-carbonyl)-amino]-4-methyl-pentanoic acid]
15000	CC(C)C[C@H](NC(=O)c1ccc2c(c1)nc(Cc1ccccc1)n2C1CCCCC1)C(=O)O [Example 148, (S)-2-[(2-Benzyl-1-cyclohexyl-1H-benzoimidazole-5-carbonyl)-amino]-4-methyl-pentanoic acid]
27000	CCC(C)n1c(CC2CCCC2)nc2cc(C(=O)N[C@@H](CC(C)C)C(=O)O)ccc21 (stereo partly drawn) [Example 149, (S)-2-[(1-sec-Butyl-2-cyclopentylmethyl-1H-benzoimidazole-5-carbonyl)-amino]-4-methyl-pentanoic acid]
2800	CC(C)C[C@H](NC(=O)c1ccc2c(c1)nc(CC1CCCC1)n2C1CCCCC1C)C(=O)O (stereo partly drawn) [Example 150, (S)-2-{[2-Cyclopentylmethyl-1-(2-methyl-cyclohexyl)-1H-benzoimidazole-5-carbonyl]-amino}-4-methyl-pentanoic acid]

EC50 [nM]	SMILES
890	CCC(CC)n1c(CC2CCCO2)nc2cc(C(=O)N[C@@H](CC3CCCCC3)C(=O)O)ccc21 (stereo partly drawn) [Example 151, (S)-3-Cyclohexyl-2-{[1-(1-ethyl-propyl)-2-(tetrahydro-furan-2-ylmethyl)-1H-benzoimidazole-5-carbonyl]-amino}-propionic acid]
3950	CC(C)C[C@H](NC(=O)c1ccc2c(c1)nc(Cc1ccsc1)n2C1CCCCC1)C(=O)O [Example 152, (S)-2-[(1-Cyclohexyl-2-thiophen-3-ylmethyl-1H-benzoimidazole-5-carbonyl)-amino]-4-methyl-pentanoic acid]
350	CCC(CC)n1c(Cc2cccs2)nc2cc(C(=O)N[C@H](C(=O)O)[C@H](C)CC)ccc21 [Example 153, (2S,3R)-2-{[1-(1-Ethyl-propyl)-2-thiophen-2-ylmethyl-1H-benzoimidazole-5-carbonyl]-amino}-3-methyl-pentanoic acid]
270	CCC(CC)n1c(Cc2ccoc2)nc2cc(C(=O)N[C@H](CC(=O)O)CC(C)C)ccc21 [Example 154, (S)-3-{[1-(1-Ethyl-propyl)-2-furan-3-ylmethyl-1H-benzoimidazole-5-carbonyl]-amino}-5-methyl-hexanoic acid]
500	CCCC(CC(=O)O)NC(=O)c1ccc2c(c1)nc(Cc1cccs1)n2C(CC)CC (stereo not shown) [Example 155, 3-{[1-(1-Ethyl-propyl)-2-thiophen-2-ylmethyl-1H-benzoimidazole-5-carbonyl]-amino}-hexanoic acid]
210	CCC(CC)n1c(Cc2ccsc2)nc2cc(C(=O)N[C@H](CC(=O)O)CC(C)C)ccc21 [Example 156, (S)-3-{[1-(1-Ethyl-propyl)-2-thiophen-3-ylmethyl-1H-benzoimidazole-5-carbonyl]-amino}-5-methyl-hexanoic acid]
10000	CCC(CC)n1c(Cc2ccccc2)nc2cc(C(=O)N[C@H](CC(=O)O)CC(C)C)ccc21 [Example 157, (S)-3-{[2-Benzyl-1-(1-ethyl-propyl)-1H-benzoimidazole-5-carbonyl]-amino}-5-methyl-hexanoic acid]
515	CCC(CC)n1c(CC2CCCC2)nc2cc(C(=O)N[C@H](CC(=O)O)CC(C)C)ccc21 [Example 158, (S)-3-{[2-Cyclopentylmethyl-1-(1-ethyl-propyl)-1H-benzoimidazole-5-carbonyl]-amino}-5-methyl-hexanoic acid]
15000	CCC(C)Cn1c(CC2CCCC2)nc2cc(C(=O)N[C@H](CC(=O)O)CC(C)C)ccc21 (stereo partly drawn) [Example 159, (S)-3-{[2-Cyclopentylmethyl-1-(2-methyl-butyl)-1H-benzoimidazole-5-carbonyl]-amino}-5-methyl-hexanoic acid]
820	CCC(CC)n1c(CC2CCCO2)nc2cc(C(=O)N[C@H](CC(=O)O)CC(C)C)ccc21 (stereo partly drawn) [Example 160, (S)-3-{[1-(1-Ethyl-propyl)-2-(tetrahydro-furan-2-ylmethyl)-1H-benzoimidazole-5-carbonyl]-amino}-5-methyl-hexanoic acid]
2300	CCC(CC)n1c(Cc2cccs2)nc2cc(C(=O)N[C@H](CC(=O)O)C(C)C)ccc21 [Example 161, (R)-3-{[1-(1-Ethyl-propyl)-2-thiophen-2-ylmethyl-1H-benzoimidazole-5-carbonyl]-amino}-4-methyl-pentanoic acid]
1100	CCC(CC)n1c(Cc2cccs2)nc2cc(C(=O)N[C@H](CCC(=O)O)C(C)C)ccc21 [Example 162, (R)-4-{[1-(1-Ethyl-propyl)-2-thiophen-2-ylmethyl-1H-benzoimidazole-5-carbonyl]-amino}-5-methyl-hexanoic acid]
51	CCC(CC)n1c(Cc2cccs2)nc2cc(C(=O)N[C@H](CCC(=O)O)CC(C)C)ccc21 [Example 163, (R)-4-{[1-(1-Ethyl-propyl)-2-thiophen-2-ylmethyl-1H-benzoimidazole-5-carbonyl]-amino}-6-methyl-heptanoic acid]
6350	CC(C)C[C@H](NC(=O)c1ccc2c(c1)nc(Cc1cccs1)n2C(C(C)C)C(C)C)C(=O)O [Example 164, (S)-2-{[1-(1-Isopropyl-2-methyl-propyl)-2-thiophen-2-ylmethyl-1H-benzoimidazole-5-carbonyl]-amino}-4-methyl-pentanoic acid]
1010	CC(C)C[C@H](NC(=O)c1ccc2c(c1)nc(Cc1cccs1)n2-c1ccccc1Cl)C(=O)O [Example 165, (S)-2-{[1-(2-Chloro-phenyl)-2-thiophen-2-ylmethyl-1H-benzoimidazole-5-carbonyl]-amino}-4-methyl-pentanoic acid]
